Experimental data taken from ChEMBL document CHEMBL1201862, “PubChem BioAssay data set” (2004).
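1) Cells in 96-well plates. 2) Compound, 48 h, 5 concentrations. 3) Linear interpolation between surrounding doses. 4) Unreached endpoint = highest concentration. GI50 = concentration required for 50% inhibition of growth.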 The source made the active and inactive calls. Rule as the data show it: active = GI50 up to about 1.1 µM and inactive = higher.

Assays:
Test in all cases: NCI anticancer screen, dose series, 48 h
786-0 = system: 786-0
A498 = system: A498
A549 = system: A549
CAKI-1 = system: CAKI-1
COLO 205 = system: COLO 205
DU-145 = system: DU-145
HCT-15 = system: HCT-15
HOP-62 = system: HOP-62
HT-29 = system: HT-29
K562 = system: K562
LOX IMVI = system: LOX IMVI
MDA-MB-435 = system: MDA-MB-435
MDA-N = system: MDA-N
NCI-H23 = system: NCI-H23
OVCAR-3 = system: OVCAR-3
OVCAR-8 = system: OVCAR-8
PC-3 = system: PC-3
RXF 393 = system: RXF 393
SF-268 = system: SF-268
SK-MEL-28 = system: SK-MEL-28

Measured: GI50

O=C(O)CC1(CC(=O)O)Nc2ccccc2SC1=O
> 100 µM: HCT-15
inactive: 786-0 > 100 µM | A498 > 100 µM | A549 > 100 µM | CAKI-1 > 100 µM | COLO 205 > 100 µM | DU-145 > 100 µM | HOP-62 > 100 µM | HT-29 > 100 µM | K562 > 100 µM | LOX IMVI > 100 µM | MDA-MB-435 > 100 µM | MDA-N > 100 µM | NCI-H23 > 100 µM | OVCAR-3 > 100 µM | OVCAR-8 > 100 µM | PC-3 > 100 µM | RXF 393 > 100 µM | SF-268 > 100 µM | SK-MEL-28 > 100 µM

Cc1cn(C2OC(CO)C(O)C2F)c(=O)[nH]c1=O (stereo not given)
inactive: 786-0 87.5 µM | A498 > 100 µM | A549 61.5 µM | CAKI-1 > 100 µM | COLO 205 > 100 µM | DU-145 70.1 µM | HOP-62 95.3 µM | HT-29 > 100 µM | K562 59.7 µM | LOX IMVI 24.1 µM | MDA-MB-435 > 100 µM | MDA-N > 100 µM | NCI-H23 > 100 µM | OVCAR-3 > 100 µM | OVCAR-8 > 100 µM | PC-3 > 100 µM | RXF 393 43 µM | SF-268 > 100 µM | SK-MEL-28 > 100 µM
> 100 µM: HCT-15

N/N=C1N=C(Cl)/C(=C/c2ccco2)N\1
31.5 µM: HCT-15
inactive: 786-0 61.5 µM | A498 > 100 µM | A549 38 µM | CAKI-1 48.6 µM | COLO 205 43.1 µM | DU-145 50.4 µM | HOP-62 59.2 µM | HT-29 34.9 µM | K562 14.8 µM | LOX IMVI 27.9 µM | MDA-MB-435 40.6 µM | MDA-N 47.8 µM | NCI-H23 54.8 µM | OVCAR-3 28.7 µM | OVCAR-8 44.5 µM | PC-3 36.7 µM | RXF 393 65.2 µM | SF-268 34.3 µM | SK-MEL-28 60.8 µM

N#CCC12CC=CCC1=C(O)C(=O)c1ccc(O)cc12 (stereo not given)
> 100 µM: HCT-15
inactive: 786-0 > 100 µM | A498 > 100 µM | A549 > 100 µM | CAKI-1 > 100 µM | COLO 205 > 100 µM | DU-145 > 100 µM | HOP-62 > 100 µM | HT-29 > 100 µM | K562 > 100 µM | LOX IMVI > 100 µM | MDA-MB-435 > 100 µM | MDA-N > 100 µM | NCI-H23 > 100 µM | OVCAR-3 > 100 µM | OVCAR-8 > 100 µM | PC-3 > 100 µM | RXF 393 > 100 µM | SF-268 > 100 µM | SK-MEL-28 > 100 µM

COC(=O)C1=NN2c3ccccc3C(=O)OCCC2C1 (stereo not given)
inactive: 786-0 > 100 µM | A498 > 100 µM | A549 > 100 µM | CAKI-1 > 100 µM | COLO 205 > 100 µM | DU-145 > 100 µM | HOP-62 > 100 µM | HT-29 > 100 µM | K562 > 100 µM | LOX IMVI > 100 µM | MDA-MB-435 > 100 µM | MDA-N > 100 µM | NCI-H23 > 100 µM | OVCAR-3 > 100 µM | OVCAR-8 > 100 µM | PC-3 > 100 µM | RXF 393 > 100 µM | SF-268 > 100 µM | SK-MEL-28 > 100 µM
> 100 µM: HCT-15

COc1ccc2nc3cc(Cl)ccc3c(Nc3ccc(O)c(CN4CCN(C)CC4)c3)c2c1
inactive: 786-0 1.5 µM | A498 4.51 µM | A549 1.87 µM | CAKI-1 1.92 µM | COLO 205 1.63 µM | DU-145 1.9 µM | HOP-62 2.06 µM | HT-29 1.67 µM | K562 1.59 µM | LOX IMVI 1.71 µM | MDA-MB-435 1.62 µM | MDA-N 1.67 µM | NCI-H23 1.89 µM | OVCAR-3 1.92 µM | OVCAR-8 1.79 µM | PC-3 1.67 µM | RXF 393 1.69 µM | SF-268 2.28 µM | SK-MEL-28 1.92 µM
2.31 µM: HCT-15

COc1ccc(C2CC(C)(O)Oc3cc4c(cc32)OCO4)cc1 (stereo not given)
23.8 µM: HCT-15
active: RXF 393 0.0855 µM
inactive: 786-0 37.2 µM | A498 30.9 µM | A549 30.5 µM | CAKI-1 41.7 µM | COLO 205 19.7 µM | DU-145 61.2 µM | HOP-62 40.1 µM | HT-29 24.9 µM | K562 15.2 µM | LOX IMVI 27.2 µM | MDA-MB-435 7.14 µM | MDA-N 10.5 µM | NCI-H23 33.7 µM | OVCAR-3 32.3 µM | OVCAR-8 35 µM | PC-3 18.7 µM | SF-268 35.8 µM | SK-MEL-28 45.6 µM

Cc1nnc(SCc2nc(C#N)c(C#N)nc2CSc2nnc(C)s2)s1
7.66 µM: HCT-15
inactive: 786-0 9.48 µM | A498 27.4 µM | A549 33.3 µM | CAKI-1 5.74 µM | COLO 205 11.5 µM | DU-145 14.5 µM | HOP-62 19.1 µM | HT-29 18.2 µM | K562 4.37 µM | LOX IMVI 8.89 µM | MDA-MB-435 8.63 µM | MDA-N 17.6 µM | NCI-H23 19.1 µM | OVCAR-3 6.78 µM | OVCAR-8 12.9 µM | PC-3 14.8 µM | RXF 393 6.76 µM | SF-268 17.9 µM | SK-MEL-28 26.9 µM

C[C@]12CC[C@H](O)CC1=CC[C@@H]1[C@@H]2CC[C@]2(C)C(=O)[C@@H](N3CCOCC3)C[C@@H]12
> 100 µM: HCT-15
inactive: 786-0 > 100 µM | A498 > 100 µM | A549 > 100 µM | CAKI-1 3.26 µM | COLO 205 > 100 µM | DU-145 > 100 µM | HOP-62 > 100 µM | HT-29 > 100 µM | K562 89.3 µM | LOX IMVI > 100 µM | MDA-MB-435 > 100 µM | MDA-N > 100 µM | NCI-H23 57.8 µM | OVCAR-3 > 100 µM | OVCAR-8 47.1 µM | PC-3 > 100 µM | RXF 393 36.9 µM | SF-268 48.4 µM | SK-MEL-28 > 100 µM

CCOc1cc(NC(C)=O)ccc1C(=O)NNS(=O)(=O)c1ccc(Cl)cc1Cl
inactive: 786-0 > 50 µM | A498 > 50 µM | A549 > 50 µM | CAKI-1 > 50 µM | COLO 205 > 50 µM | DU-145 > 50 µM | HOP-62 > 50 µM | HT-29 > 50 µM | LOX IMVI 45.5 µM | MDA-MB-435 12.7 µM | MDA-N 10.6 µM | NCI-H23 > 50 µM | OVCAR-3 > 50 µM | OVCAR-8 > 50 µM | PC-3 > 50 µM | RXF 393 > 50 µM | SF-268 > 50 µM | SK-MEL-28 > 50 µM
active: K562 0.232 µM
> 50 µM: HCT-15

CCOc1cc2c(cc1O)C=C[C@@H]1[C@@H]2CC[C@]2(C)[C@@H](O)CC[C@@H]12
active: MDA-MB-435 0.334 µM | MDA-N 0.33 µM
0.562 µM: HCT-15
inactive: 786-0 4.35 µM | A498 7.11 µM | A549 4.27 µM | CAKI-1 5.28 µM | COLO 205 21.1 µM | DU-145 1.53 µM | HOP-62 3.85 µM | HT-29 10 µM | K562 1.8 µM | LOX IMVI 3.87 µM | NCI-H23 3.85 µM | OVCAR-3 1.87 µM | OVCAR-8 4.29 µM | PC-3 3.64 µM | RXF 393 7.29 µM | SF-268 9.06 µM | SK-MEL-28 22.3 µM

c1ccc(/N=C2/SC(c3ccccc3)(c3ccccc3)c3ccccc32)cc1
inactive: 786-0 > 100 µM | A498 > 100 µM | A549 > 100 µM | CAKI-1 > 100 µM | COLO 205 > 100 µM | DU-145 > 100 µM | HOP-62 > 100 µM | HT-29 > 100 µM | K562 > 100 µM | LOX IMVI 71.6 µM | MDA-MB-435 > 100 µM | MDA-N > 100 µM | NCI-H23 > 100 µM | OVCAR-3 > 100 µM | OVCAR-8 > 100 µM | PC-3 > 100 µM | RXF 393 > 100 µM | SF-268 > 100 µM | SK-MEL-28 > 100 µM
> 100 µM: HCT-15

N=C(N)SCc1ccc2c(c1)Sc1ccccc1O2
inactive: 786-0 4.76 µM | A498 15.6 µM | A549 6.73 µM | CAKI-1 6.46 µM | COLO 205 2.36 µM | DU-145 8.69 µM | HOP-62 14.1 µM | HT-29 2.9 µM | K562 6.03 µM | LOX IMVI 6 µM | MDA-MB-435 3.78 µM | MDA-N 3.93 µM | NCI-H23 6.5 µM | OVCAR-3 4.69 µM | OVCAR-8 10.6 µM | PC-3 4.74 µM | RXF 393 3.61 µM | SF-268 13.1 µM | SK-MEL-28 13.6 µM
3.33 µM: HCT-15

NC(C(=O)O)c1cc(O)no1 (stereo not given)
> 100 µM: HCT-15
inactive: 786-0 > 100 µM | A498 > 100 µM | A549 > 100 µM | CAKI-1 > 100 µM | COLO 205 > 100 µM | DU-145 > 100 µM | HOP-62 > 100 µM | HT-29 > 100 µM | K562 > 100 µM | LOX IMVI > 100 µM | MDA-MB-435 > 100 µM | MDA-N > 100 µM | NCI-H23 > 100 µM | OVCAR-3 > 100 µM | OVCAR-8 > 100 µM | PC-3 > 100 µM | RXF 393 > 100 µM | SF-268 > 100 µM | SK-MEL-28 > 100 µM
